Laboratory results as given in article PMC7995547, “ω‐Imidazolyl‐alkyl derivatives as new preclinical drug candidates for treating non‐alcoholic steatohepatitis” (Physiological Reports, 2021).
Several values for one entry are separate records, joined by “and”; a condition that tells them apart may be missing. Equal entries are not always repeated.

Columns and labels:
[1] = tested on: HFD‐induced NASH rat model (serum); test: Adipocytokines and glucose metabolism in serum, NASH rat model; type: in vivo, Wistar rats; conditions: for Decrease in serum TNF‐α level compared to disease group / Decrease in serum leptin compared to disease group / Increase in serum adiponectin compared to disease group / Reduction of the effect of HFD on serum adiponectin / Reduction of the effect of HFD on serum leptin: average over doses (I‐ol, I‐an); for Reduction of the effect of HFD on serum adiponectin: UDCA 40 mg/kg b.w. (elevated the concentration by); for Reduction of the effect of HFD on serum leptin: UDCA 40 mg/kg b.w. (reduced leptin concentration); for Serum leptin above the reference value of control group 1: highest concentrations (40 mg/kg b.w.)
Protocol: (§1) Studies were done using Wistar rats of female sex by the Institute of Pharmacology and Biochemistry at Minsk. The animals were 80–90 days old and weighed 180–200 g. They had free access to a liquid Lieber‐DeCarli (LDC) diet (Lieber et al., 2004) and were housed under standard conditions meaning a 12‐h light/dark cycle at 22 ± 2°C and 55 ± 5% humidity.
(§2) Group 1 was designated as the first control group; it was fed a normal standard solid diet. Group 2, as the second control group, was fed a standard amount of fat as a part of the liquid “physiological,” non‐high fat LDC diet. All other groups received the liquid ‘disease‐causing’ LDC diet (Table 2), including a high content of unsaturated fatty acids.
(§3) Both LDC diets were in a liquid form as produced by ssniff‐Spezialdiäten GmbH, Soest (Germany). The feed was provided over the entire experimental period of 16 weeks; however, the corresponding experimental substances were only administered in the last four weeks (Figure 3).
(§4) The experimental substances I‐ol, I‐an, and UDCA were dissolved in a 0.8% aqueous HPMC gel to obtain the following concentrations: (1) I‐ol at 0.4, 4, and 40 mg/kg body weight (b.w.), (2) I‐an at 0.4, 4, and 40 mg/kg b.w., and (3) UDCA at 40 mg/kg b.w. The Group‐2 and −3 rats received only HPMC as placebo. Each test encompassed 6–8 rats that were put up in a separate cage. The rats were fed ad libitum, and their intake per cage was controlled daily. In order to ensure an exact daily reproducible dosage, the experimental substances or only HPMC was administered intragastrically via oral gavage. Basically, the drug therapy of a chronic disease is the more efficient the higher the adherence of the affected patients. This is generally higher with peroral administration than with any other form of application. At the end of the experiment, the animals were sacrificed under fasting conditions, by aorta dissection and exsanguination, after anesthetizing with an intraperitoneal injection of 5% pentobarbital solution.
The concentrations of adiponectin and TNFα were measured using ELISA kits sold by BioCat GmbH (Heidelberg, Germany), whereas the one for determining leptin level was procured from BioVendor Laboratory Medicine Inc. (Brno, Czech Republic). Insulin concentration was determined using the radioimmunoassay kit RIO‐insulin‐PG‐J125 (IBOCH, Minsk, Belarus). Serum glucose level was determined based on the “Accu‐Check Active blood glucose” monitoring method developed by Roche‐Diagnostics.

[2] = tested on: HFD‐induced NASH rat model (serum); test: Liver enzyme activities and bilirubin in serum, NASH rat model; type: in vivo, Wistar rats; conditions: for Decrease in serum bilirubin level compared to disease group / Decrease in γ‐GT enzymatic activity compared to disease group / Reduction of the effect of HFD on γ‐GT activity: UDCA 40 mg/kg b.w.; for Decrease in γ‐GT enzymatic activity compared to disease group / Reduction of the effect of HFD on γ‐GT activity: average over doses (I‐ol, I‐an); for Decrease in ALT enzymatic activity compared to disease group / Reduction of the effect of HFD on ALT activity: highest concentrations (40 mg/kg b.w.); for Reduction of the effect of HFD on ALT activity: b87: dose not stated; for Decrease in AP enzymatic activity compared to disease group / Decrease in AST enzymatic activity compared to disease group: number: highest concentration (40 mg/kg b.w.), words: compound overall
Protocol: as §1, §2, §3, §4
The activities of the liver enzymes aspartate aminotransferase (AST), alanine aminotransferase (ALT), alkaline phosphatase (AP), and γ‐glutamyl transferase (γ‐GT) as well as bilirubin and triglyceride levels in the serum were determined as described by the instructions of BIO‐LA‐tests kit (Erba Lachema, Brno, Czech Republic).

[3] = serum, highest concentration (40 mg/kg b.w.)

| Compound | Decrease in serum TNF‐α level compared to disease group ([1]; UDCA 40 mg/kg b.w.) | Decrease in serum leptin compared to disease group ([1]; UDCA 40 mg/kg b.w.) | Increase in serum adiponectin compared to disease group ([1]; UDCA 40 mg/kg b.w.) | Reduction of the effect of HFD on serum adiponectin [1] | Reduction of the effect of HFD on serum leptin [1] | Serum leptin above the reference value of control group 1 [1] | Decrease in serum bilirubin level compared to disease group ([2]; average over doses) | Decrease in γ‐GT enzymatic activity compared to disease group ([2]; serum) | Reduction of the effect of HFD on γ‐GT activity ([2]; serum) | Decrease in ALT enzymatic activity compared to disease group ([2]; serum) | Reduction of the effect of HFD on ALT activity ([2]; serum) | Decrease in AP enzymatic activity compared to disease group ([2]; serum) | Decrease in AST enzymatic activity compared to disease group ([2]; serum) | further results |
| --- | --- | --- | --- | --- | --- | --- | --- | --- | --- | --- | --- | --- | --- | --- |
| OCCCCCCCCCCCCn1ccnc1 [I‐ol, 12‐imidazolyl‐1‐dodecanol] | 49% | 22% | 64% | 78% | 75% | 3% | 14% | 34% | 84% | 16% | 55% and ~70% | no therapeutic effect | no therapeutic effect | Reduction of the effect of HFD on serum TNF‐α level ([1]; average over doses (I‐ol), UDCA 40 mg/kg b.w.): 66%; Serum adiponectin above the reference value of control group 1 ([1]; highest concentration (40 mg/kg b.w.)): 4%; Dose dependence of the effect on γ‐GT activity ([2]; 0.4, 4, 40 mg/kg b.w.): moderate but very highly significant (p < 0.001), linear, dose‐dependent effect; Serum bilirubin below the levels measured in the disease group and the two control groups ([2]; average over doses): more than 10% |
| CCCCCCCCCCCCn1ccnc1 [I‐an, 1‐imidazolyldodecane] | not significant | 18% | 31% | 38% | 62% | 1% | no therapeutic effect | 35% | 86% | 20% | 66% and ~70% | 21% | 21% | Dose dependence of the effect on serum adiponectin ([1]; 0.4, 4, 40 mg/kg b.w.): weak, significant (p < 0.05) linear dose‐dependent effect; Dose dependence of the effect on serum leptin ([1]; 0.4, 4, 40 mg/kg b.w.): weak yet significant (p < 0.05) linear dose‐dependent effect; Dose dependence of the effect on ALT activity ([2]; 0.4, 4, 40 mg/kg b.w.): weak, significant (p < 0.05), linear, dose‐dependent effect; Dose dependence of the effect on AP activity ([2]; 0.4, 4, 40 mg/kg b.w.): weak but significant (p < 0.05), linear, dose‐dependent effect; Dose dependence of the effect on AST activity ([2]; 0.4, 4, 40 mg/kg b.w.): moderate, very highly significant (p < 0.001), linear, dose‐dependent effect; Reduction of the effect of HFD on AP activity [2, 3]: 89%; Reduction of the effect of HFD on AST activity [2, 3]: 92% and 90% |
